Measurements published in the supplement of paper PMC11061612.

Key:
[1] = test system: RF-48 (B-Cell Non-Hodgkin's Lymphoma); test: Bliss excess, mean over the matrix (fraction); higher = more synergy
Method in brief: (§1)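 After 24 hours at 37°C and 5% CO2 in 1536-well plates, cells in DMEM/F12 or RPMI plus 10% FBS received two-drug dose matrices for 72 hours. Viability came from CellTiter-Glo 2.0 luminescence and was scaled as inhibition, anchored at 0 by vehicle wells and at 1 by blank wells. Combination Emax is taken as the second-highest inhibition in the matrix, and Bliss excess as the observed combination effect less EA + EB − EA·EB, with EA and EB the single-agent effects.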

TK10 (Kidney Carcinoma) [2] = test: as above
Method in brief: as §1

[3] = test system: KYSE-450 (Esophageal Squamous Cell Carcinoma); test: as above
Method in brief: as §1

EW-24 (Ewing's Sarcoma) = test: as above
Method in brief: as §1

[4] = test system: BT-549 (Breast Carcinoma); test: as above
Method in brief: as §1

TGW (Neuroblastoma) = test: combination Emax (second highest fraction inhibited in the dose matrix, 72 h); higher = more inhibition; extreme values may be limits of the assay
Method in brief: as §1

TK10 (Kidney Carcinoma) [5] = test: as above
Method in brief: as §1

[6] = test system: EoL-1-cell (Acute Myeloid Leukemia); test: as above
Method in brief: as §1

[7] = test system: Hs-766T (Pancreatic Carcinoma); test: as above
Method in brief: as §1

[8] = test system: Caov-4 (Ovarian Carcinoma); test: as above
Method in brief: as §1

UACC-62 (Melanoma) = test: as above
Method in brief: as §1

[9] = test system: KARPAS-299 (T-Cell Non-Hodgkin's Lymphoma); test: as above
Method in brief: as §1

D-263MG (Glioblastoma) = test: as above
Method in brief: as §1

[10] = test system: NCI-H358 (Lung Adenocarcinoma); test: as above
Method in brief: as §1

[11] = test system: MLMA (Other Blood Carcinomas); test: as above
Method in brief: as §1

ACHN (Kidney Carcinoma) = test: as above
Method in brief: as §1

NB69 (Neuroblastoma) = test: as above
Method in brief: as §1

[12] = test system: EFM-19 (Breast Carcinoma); test: as above
Method in brief: as §1

[13] = test system: BT-549 (Breast Carcinoma); test: as above
Method in brief: as §1

[14] = test system: PANC-04-03 (Pancreatic Carcinoma); test: as above
Method in brief: as §1
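Throughout, for Bliss excess, mean over the matrix: after 72 h of two-drug dosing.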

Row | SMILES | Bliss excess [1] | Bliss excess (TK10 (Kidney Carcinoma) [2]) | Bliss excess [3] | Bliss excess (EW-24 (Ewing's Sarcoma)) | Bliss excess [4] | combination Emax (TGW (Neuroblastoma)) | combination Emax (TK10 (Kidney Carcinoma) [5]) | combination Emax [6] | combination Emax [7] | combination Emax [8] | combination Emax (UACC-62 (Melanoma)) | combination Emax [9] | combination Emax (D-263MG (Glioblastoma)) | combination Emax [10] | combination Emax [11] | combination Emax (ACHN (Kidney Carcinoma)) | combination Emax (NB69 (Neuroblastoma)) | combination Emax [12] | combination Emax [13] | combination Emax [14]
1 | Cc1cc2ncnn2cc1Nc1ncc2c(n1)n(C1CCOCC1)c(=O)n2C [AZD7648] + CCN(CCO)CCCOc1ccc2c(Nc3cc(CC(=O)Nc4cccc(F)c4)[nH]n3)ncnc2c1 [AZD2811] (first compound max 10 µM, 7x7, partner max 1 µM) | 0.0013 | 0.0024 | 0.0246 | -0.0051 | 0.013 | 0.351 | 0.42 | 0.984 | 0.422 | 0.445 | 0.312 | 0.326 | 0.473 | 0.326 | 0.351 | 0.329 | 0.655 | 0.536 | 0.361 | 0.284
2 | N#Cc1cnc(Nc2cc(NC[C@H]3CNCCO3)c(C(F)(F)F)cn2)cn1 [SRA737] + CCc1c2c(nc3ccc(O)cc13)-c1cc3c(c(=O)n1C2)COC(=O)[C@]3(O)CC [SN-38] (first compound max 10 µM, 7x7, partner max 0.3 µM) | -0.0047 | 0.0241 | 0.157 | -0.0859 | -0.0463 | 0.714 | 0.682 | 0.994 | 0.631 | 0.9 | 0.664 | 0.999 | 0.823 | 0.8 | 0.77 | 0.893 | 0.991 | 0.689 | 0.75 | 0.57
3 | CN(CCO)CC[C@H](CSc1ccccc1)Nc1ccc(S(=O)(=O)NC(=O)c2ccc(N3CCC([C@@H](O)c4ccccc4-c4ccc(Cl)cc4)CC3)cc2)cc1S(=O)(=O)C(F)(F)F [AZD4320] + C[C@@H]1COCCN1C2=NC(=NC(=C2)C3(CC3)[S@](=N)(=O)C)C4=C5C=CNC5=NC=C4 [AZD6738] (first compound max 1 µM, 7x7, partner max 10 µM) | 0.0017 | -0.0797 | -0.0496 | 0.0267 | -0.0239 | 0.949 | 0.866 | 1 | 0.6 | 0.874 | 0.7 | 0.955 | 0.758 | 0.705 | 0.83 | 0.986 | 0.959 | 0.716 | 0.552 | 0.461
4 | N#Cc1cnc(Nc2cc(NC[C@H]3CNCCO3)c(C(F)(F)F)cn2)cn1 [SRA737] + O=c1[nH]cc(F)c(=O)[nH]1 [5-Fluorouracil] (first compound max 10 µM, 7x7, partner max 20 µM) | -0.0095 | -0.0549 | -0.0348 | 0.0101 | 0.0358 | 0.693 | 0.551 | 0.994 | 0.405 | 0.749 | 0.098 | 0.996 | 0.35 | 0.631 | 0.77 | 0.781 | 0.805 | 0.355 | 0.711 | 0.474
5 | CN(CCO)CC[C@H](CSc1ccccc1)Nc1ccc(S(=O)(=O)NC(=O)c2ccc(N3CCC([C@@H](O)c4ccccc4-c4ccc(Cl)cc4)CC3)cc2)cc1S(=O)(=O)C(F)(F)F [AZD4320] + C=CCn1c(=O)c2cnc(Nc3ccc(N4CCN(C)CC4)cc3)nc2n1-c1cccc(C(C)(C)O)n1 [AZD1775] (first compound max 1 µM, partner max 1 µM) | 0.0896 | 0.0515 | -0.0535 | 0.119 | 0.0109 | 1 | 0.571 | 1 | 0.398 | 0.857 | 0.71 | 0.938 | 0.381 | 0.498 | 0.994 | 0.986 | 0.952 | 0.716 | 0.751 | 0.486
6 | CN(CCO)CC[C@H](CSc1ccccc1)Nc1ccc(S(=O)(=O)NC(=O)c2ccc(N3CCC([C@@H](O)c4ccccc4-c4ccc(Cl)cc4)CC3)cc2)cc1S(=O)(=O)C(F)(F)F [AZD4320] + C[C@@H](Nc1cc(F)cc(F)c1)c1cc(C(=O)N(C)C)cc2c(=O)cc(N3CCOCC3)oc12 [AZD8186] (first compound max 1 µM, 7x7, partner max 3 µM) | 0.0072 | -0.032 | -0.07 | -0.0214 | -0.0156 | 0.968 | 0.54 | 1 | 0.469 | 0.461 | 0.67 | 0.247 | 0.38 | 0.394 | 0.701 | 0.252 | 0.97 | 0.82 | 0.456 | 0.257
7 | C[C@@H](c1ccc2nccn2c1)n1nnc2ncc(-c3cnn(C)c3)nc21 [Savolitinib] + Cc1c2c(nn1C)CSCc1cc(n(C)n1)CSc1cc(c3ccccc3c1)OCCCc1c(C(=O)O)n(C)c3c-2c(Cl)ccc13 [AZD5991] (first compound max 1 µM, 7x7, partner max 1 µM) | -0.029 | -0.0486 | -0.0186 | -0.0237 | -0.0229 | 0.214 | 0.116 | 1 | 0.233 | 0.421 | 0.545 | 0.936 | 0.366 | 0.108 | 0.33 | 0.174 | 0.74 | 0.223 | 0.225 | 0.165
8 | Cc1cc2ncnn2cc1Nc1ncc2c(n1)n(C1CCOCC1)c(=O)n2C [AZD7648] + C[C@@H]1COCCN1C2=NC(=NC(=C2)C3(CC3)[S@](=N)(=O)C)C4=C5C=CNC5=NC=C4 [AZD6738] (first compound max 10 µM, 7x7, partner max 10 µM) | 0.0071 | 0.0062 | 0.0281 | -0.0023 | 0.0207 | 0.739 | 0.753 | 0.967 | 0.636 | 0.916 | 0.624 | 0.927 | 0.647 | 0.606 | 0.67 | 0.888 | 0.865 | 0.541 | 0.441 | 0.522
9 | COc1cc2ncnc(Nc3ccc(F)c(Cl)c3)c2cc1OCCCN1CCOCC1 [Gefitinib] + CC(C)n1c(=O)n(C)c2cnc3cc(F)c(-c4ccc(OCCCN5CCCCC5)nc4)cc3c21 [AZD1390] (first compound max 10 µM, 7x7, partner max 0.3 µM) | -0.0283 | -0.0646 | -0.0177 | -0.0759 | -0.0549 | 0.0238 | 0.445 | 0.571 | 0.181 | 0.171 | 0.248 | 0.14 | 0.132 | 0.536 | 0.33 | 0.551 | 0.369 | 0.158 | 0.0893 | 0.347
10 | N#Cc1cnc(Nc2cc(NC[C@H]3CNCCO3)c(C(F)(F)F)cn2)cn1 [SRA737] + Nc1ccn([C@@H]2O[C@H](CO)[C@@H](O)C2(F)F)c(=O)n1 [Gemcitabine] (first compound max 10 µM, 7x7, partner max 0.3 µM) | 0.0451 | -0.0589 | 0.114 | -0.0984 | -0.0532 | 0.861 | 0.549 | 1 | 0.477 | 0.856 | 0.788 | 0.998 | 0.734 | 0.665 | 0.818 | 0.821 | 0.983 | 0.684 | 0.715 | 0.597
11 | COc1cc2c(cc1OCCCCCOc1cc3c(cc1OC)C(=O)N1C=C(C)C[C@H]1C=N3)N=C[C@@H]1CC(C)=CN1C2=O [SG3199] + O=C(c1cc(Cc2n[nH]c(=O)c3ccccc23)ccc1F)N1CCN(C(=O)C2CC2)CC1 [Olaparib] (first compound max 0.001 µM, 7x7, partner max 10 µM) | 0.0133 | -0.0646 | -0.041 | -0.0272 | -0.041 | 0.166 | 0.0517 | 0.319 | 0.0914 | 0.165 | 0.0735 | 0.0832 | 0.0915 | 0.0868 | 0.164 | 0.0891 | 0.444 | 0.171 | 0.095 | 0.114
12 | Cc1cc2ncnn2cc1Nc1ncc2c(n1)n(C1CCOCC1)c(=O)n2C [AZD7648] + COc1cc([C@@H]2c3cc4c(cc3[C@@H](O[C@@H]3O[C@@H]5CO[C@@H](C)O[C@H]5[C@H](O)[C@H]3O)[C@H]3COC(=O)[C@H]23)OCO4)cc(OC)c1O [Etoposide] (first compound max 10 µM, 7x7, partner max 10 µM) | 0.0671 | 0.0187 | 0.0385 | 0.0463 | 0.0306 | 0.522 | 0.592 | 1 | 0.253 | 0.744 | 0.642 | 0.976 | 0.618 | 0.628 | 0.816 | 0.772 | 0.946 | 0.615 | 0.736 | 0.335
